What all share (assay type): in vitro ADME
For data set [1], the target named is T1, endogenous canine ABCB1 (Canis lupus familiaris, UniProt C0KKU9).
T1 construct: the low-level endogenous canine ABCB1 present in MDCK-II cells; host or cells: parental MDCK-II cells (canine kidney)
Description: Transepithelial transport, parental MDCK-II cells. The settings on record: dog, pH 7.4, repotrectinib 5 µM, no inhibitor, read-out: efflux transport ratio r. From the text: (§1) Polarized Madin-Darby Canine Kidney (MDCK-II) cells (ECACC 00062107) stably transduced with either human (h) ABCB1, hABCG2 or mouse (m) Abcg2 cDNA were generated in our institute between 1995–2005. The proper identity and functionality, such as highly characteristic growth and drug transporter properties, including inhibitor sensitivity, were regularly checked in these epithelial cells. Mycoplasma routinely tested negative in these cells. The passage number was 10–15 when used in the transport experiments.
(§2) Transepithelial transport experiments were performed as previously described with 12-well plates (Transwell 3414, Corning Inc., Kennebunk, ME, USA) containing microporous polycarbonate membrane filters (3.0 µm pore size, 12 mm diameter). […]
(§3) After pre-incubation with 5 µM zosuquidar (ABCB1 inhibitor) and/or 5 µM Ko143 (ABCG2/Abcg2 inhibitor) in both compartments (when appropriate) for 1 h, the transport phase was initiated (t = 0) by replacing the medium in apical and basolateral compartments with fresh DMEM with 10% FBS and the appropriate inhibitor(s), and repotrectinib at 5 µM in the donor compartment. […] The active transport ratio r, calculated by dividing the amount of apically directed drug transport by basolaterally directed drug translocation after 8 h, was used to assess active transport of repotrectinib.

Data set [2] relates to T2, endogenous canine ABCB1.
T2 construct: the low-level endogenous canine ABCB1 present in MDCK-II cells; host or cells: parental MDCK-II cells (canine kidney)
Description: Transepithelial transport, parental MDCK-II cells. The settings on record: dog, pH 7.4, with zosuquidar 5 µM, 5 µM, + zosuquidar 5 µM, read-out: efflux transport ratio r.
Description: as §1, §2, §3

The target in data set [3] is T3, human ABCB1 (Homo sapiens, UniProt P08183).
T3 construct: expressed in transfected cells; host or cells: MDCK-II cells stably transduced with hABCB1 cDNA (made in the authors' institute)
T3 sequence (P08183 whole entry): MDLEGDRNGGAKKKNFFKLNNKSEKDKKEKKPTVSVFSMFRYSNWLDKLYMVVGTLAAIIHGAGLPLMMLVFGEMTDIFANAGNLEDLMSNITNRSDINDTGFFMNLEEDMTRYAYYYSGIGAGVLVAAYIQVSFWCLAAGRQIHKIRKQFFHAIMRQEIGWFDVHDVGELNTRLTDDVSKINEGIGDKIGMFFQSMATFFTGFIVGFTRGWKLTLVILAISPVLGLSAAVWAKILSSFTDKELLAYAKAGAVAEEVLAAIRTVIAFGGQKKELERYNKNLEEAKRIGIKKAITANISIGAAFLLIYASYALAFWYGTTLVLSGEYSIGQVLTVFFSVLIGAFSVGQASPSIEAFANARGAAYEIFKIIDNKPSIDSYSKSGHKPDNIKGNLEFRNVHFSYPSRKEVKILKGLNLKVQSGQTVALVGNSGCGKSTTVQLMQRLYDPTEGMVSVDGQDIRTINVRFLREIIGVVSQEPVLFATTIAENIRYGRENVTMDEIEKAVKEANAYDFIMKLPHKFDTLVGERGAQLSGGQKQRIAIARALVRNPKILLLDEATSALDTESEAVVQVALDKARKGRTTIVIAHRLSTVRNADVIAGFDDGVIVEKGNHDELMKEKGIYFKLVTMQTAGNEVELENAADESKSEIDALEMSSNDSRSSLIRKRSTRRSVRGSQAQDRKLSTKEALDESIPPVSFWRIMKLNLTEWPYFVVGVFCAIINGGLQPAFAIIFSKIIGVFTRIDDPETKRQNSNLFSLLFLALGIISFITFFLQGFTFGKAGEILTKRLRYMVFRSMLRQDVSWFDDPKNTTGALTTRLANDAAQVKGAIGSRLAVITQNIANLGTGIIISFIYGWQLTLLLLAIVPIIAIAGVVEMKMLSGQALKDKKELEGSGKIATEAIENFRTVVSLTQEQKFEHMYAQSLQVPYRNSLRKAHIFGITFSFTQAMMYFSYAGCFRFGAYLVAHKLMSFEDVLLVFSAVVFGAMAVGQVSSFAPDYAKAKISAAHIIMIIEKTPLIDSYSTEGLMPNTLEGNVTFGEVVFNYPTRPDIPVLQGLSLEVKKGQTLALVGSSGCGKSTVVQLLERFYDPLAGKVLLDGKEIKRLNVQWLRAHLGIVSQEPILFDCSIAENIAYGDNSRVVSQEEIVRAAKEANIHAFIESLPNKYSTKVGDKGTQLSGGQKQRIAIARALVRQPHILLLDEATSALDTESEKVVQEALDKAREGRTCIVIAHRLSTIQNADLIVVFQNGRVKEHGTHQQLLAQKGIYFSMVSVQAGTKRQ
Put plainly: Transepithelial transport, MDCK-II cells transduced with hABCB1. The settings on record: MDCK-MDR1, pH 7.4, MDCK-II hABCB1, 5 µM, no inhibitor, read-out: efflux transport ratio r.
Description: as §1, §2, §3

Data set [4] has as its system T4, human ABCB1.
T4 construct: expressed in transfected cells; host or cells: MDCK-II cells stably transduced with hABCB1 cDNA (made in the authors' institute)
Described as above. The settings on record: MDCK-MDR1, pH 7.4, with zosuquidar 5 µM, MDCK-II hABCB1, 5 µM, + zosuquidar 5 µM, read-out: efflux transport ratio r.
Description: as §1, §2, §3

Another data set concerns T5, mouse Abcg2.
T5 construct: expressed in transfected cells; host or cells: MDCK-II cells stably transduced with mAbcg2 cDNA (made in the authors' institute)
Put plainly: Transepithelial transport, MDCK-II cells transduced with mAbcg2. The settings on record: MDCK-II mAbcg2, 5 µM, read-out: efflux transport ratio r.
Description: as §1, §2, §3

Structures are written as SMILES. Where two headings read alike, the source gives them in different places.

T1 sequence (C0KKU9 1-1281): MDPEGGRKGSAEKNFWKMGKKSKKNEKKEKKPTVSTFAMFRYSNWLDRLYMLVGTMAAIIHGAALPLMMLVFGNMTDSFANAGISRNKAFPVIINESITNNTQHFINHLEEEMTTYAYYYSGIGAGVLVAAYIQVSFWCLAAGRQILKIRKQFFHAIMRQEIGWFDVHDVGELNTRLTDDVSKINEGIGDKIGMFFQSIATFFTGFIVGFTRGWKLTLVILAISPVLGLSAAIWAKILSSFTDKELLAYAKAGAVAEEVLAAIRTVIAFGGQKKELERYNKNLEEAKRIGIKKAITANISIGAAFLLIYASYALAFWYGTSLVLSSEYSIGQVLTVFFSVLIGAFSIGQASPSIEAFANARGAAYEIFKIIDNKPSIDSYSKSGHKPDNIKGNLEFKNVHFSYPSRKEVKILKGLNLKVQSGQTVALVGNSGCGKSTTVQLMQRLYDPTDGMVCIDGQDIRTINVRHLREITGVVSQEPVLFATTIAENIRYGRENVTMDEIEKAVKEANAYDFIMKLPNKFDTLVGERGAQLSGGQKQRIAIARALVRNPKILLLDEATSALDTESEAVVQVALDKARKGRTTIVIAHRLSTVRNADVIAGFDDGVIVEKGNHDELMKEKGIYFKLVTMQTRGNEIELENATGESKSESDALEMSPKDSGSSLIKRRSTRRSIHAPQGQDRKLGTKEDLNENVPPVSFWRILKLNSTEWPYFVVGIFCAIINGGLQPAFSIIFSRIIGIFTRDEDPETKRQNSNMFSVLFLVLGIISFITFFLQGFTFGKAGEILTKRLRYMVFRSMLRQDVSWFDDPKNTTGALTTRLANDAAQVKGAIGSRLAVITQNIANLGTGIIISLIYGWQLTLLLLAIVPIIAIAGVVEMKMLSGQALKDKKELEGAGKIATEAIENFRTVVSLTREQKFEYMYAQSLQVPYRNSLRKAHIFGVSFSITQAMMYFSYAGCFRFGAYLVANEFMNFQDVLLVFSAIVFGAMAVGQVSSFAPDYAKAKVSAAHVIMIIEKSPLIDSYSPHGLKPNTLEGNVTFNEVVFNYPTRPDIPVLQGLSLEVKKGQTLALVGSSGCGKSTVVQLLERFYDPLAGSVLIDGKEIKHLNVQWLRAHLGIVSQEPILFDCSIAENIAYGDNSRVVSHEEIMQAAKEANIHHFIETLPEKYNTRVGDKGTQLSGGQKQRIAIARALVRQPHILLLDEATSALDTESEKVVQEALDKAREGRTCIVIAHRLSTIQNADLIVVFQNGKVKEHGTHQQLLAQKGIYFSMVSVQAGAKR

Take `C[C@H]1CNC(=O)c2cnn3ccc(nc23)N[C@H](C)c2cc(F)ccc2O1` [repotrectinib]: the efflux ratio at 8 h, 5 µM at endogenous canine ABCB1 [1] amounted to 2.5; in the data set with endogenous canine ABCB1 [2], 1; on human ABCB1 [3], 13.5; in the data set on human ABCB1 [4], 1.1; in the data set with mouse Abcg2 (pH 7.4, with zosuquidar 5 µM + Ko143 5 µM, + zosuquidar 5 µM + Ko143 5 µM), 1.1; with mouse Abcg2 (pH 7.4, with zosuquidar 5 µM, + zosuquidar 5 µM), 40.

The values above are taken from article PMC8619046, “ABCB1 and ABCG2 Control Brain Accumulation and Intestinal Disposition of the Novel ROS1/TRK/ALK Inhibitor Repotrectinib, While OATP1A/1B, ABCG2, and CYP3A Limit Its Oral Availability” (Pharmaceutics, 2021).
